Source: ChEMBL document CHEMBL5344421, “Chemical Analysis and Antidiabetic Potential of a Decoction from Stevia serrata Roots” (J Nat Prod, 2024)
Activity calls are given as the source filed them. The calls are words filed in the database; no cut-off is given here.

Key:
[1] = target: T1, Tyrosine-protein phosphatase non-receptor type 1 (Homo sapiens, UniProt P18031); assay: Inhibition of Protein tyrosine phosphatase 1B (unknown origin) activity by spectrophotocolorimetric analysis
T1 sequence (P18031 whole entry): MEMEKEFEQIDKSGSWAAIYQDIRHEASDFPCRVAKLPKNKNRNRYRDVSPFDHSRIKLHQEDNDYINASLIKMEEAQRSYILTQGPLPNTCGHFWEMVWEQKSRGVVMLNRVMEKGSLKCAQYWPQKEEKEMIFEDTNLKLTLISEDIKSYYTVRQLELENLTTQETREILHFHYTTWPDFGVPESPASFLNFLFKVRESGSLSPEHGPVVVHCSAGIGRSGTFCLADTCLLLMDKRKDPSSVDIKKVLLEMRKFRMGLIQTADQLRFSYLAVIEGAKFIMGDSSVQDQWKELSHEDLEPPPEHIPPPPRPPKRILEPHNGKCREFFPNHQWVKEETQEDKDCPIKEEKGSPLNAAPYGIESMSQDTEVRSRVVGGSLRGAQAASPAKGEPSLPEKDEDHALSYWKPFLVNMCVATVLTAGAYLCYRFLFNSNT

[2] = target: T2, Pancreatic triacylglycerol lipase (Sus scrofa) (UniProt P00591); assay: Inhibition of porcine pancreatic lipase measured after 40 mins by spectrophotocolorimetric enzymatic assay
T2 sequence (whole entry): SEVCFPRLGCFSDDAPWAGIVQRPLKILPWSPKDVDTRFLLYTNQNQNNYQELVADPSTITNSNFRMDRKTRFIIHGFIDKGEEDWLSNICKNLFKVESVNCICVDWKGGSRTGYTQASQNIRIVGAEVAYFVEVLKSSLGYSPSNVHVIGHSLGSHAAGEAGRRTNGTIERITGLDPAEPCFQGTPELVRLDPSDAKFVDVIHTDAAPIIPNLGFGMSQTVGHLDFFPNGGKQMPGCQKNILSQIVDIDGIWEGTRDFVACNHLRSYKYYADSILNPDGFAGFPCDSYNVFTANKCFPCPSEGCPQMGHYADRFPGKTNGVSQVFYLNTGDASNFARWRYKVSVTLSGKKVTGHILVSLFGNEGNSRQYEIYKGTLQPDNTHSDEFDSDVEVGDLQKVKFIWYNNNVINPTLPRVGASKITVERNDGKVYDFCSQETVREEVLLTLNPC

Sus scrofa = species on record: Sus scrofa; assay: (§1) Inhibition of porcine pancreatic alpha-amylase measured after 40 mins by spectrophotocolorimetric enzymatic assay
[3] = as §1; design: species or system Sus scrofa
Mus musculus [4] = assay: Antihyperglycemic activity in STZ-hyperglycemic mouse assessed as decrease in at 50 mg/kg, po measured upto 120 min after administration by oral glucose tolerance test; format: functional, organism-based
Mus musculus [5] = assay: Antihyperglycemic activity in STZ-induced hyperglycemic CD1 mouse model assessed as reduction in blood glucose AUC at 50 mg/kg, ip measured upto 120 min intraperitoneal by insulin tolerance test; format: functional, organism-based
Mus musculus [6] = assay: Antihyperglycemic activity in normoglycemic mouse assessed as decrease in at 50 mg/kg, po measured upto 120 min after administration by oral glucose tolerance test; format: functional, organism-based
Mus musculus [7] = assay: Antihyperglycemic activity in STZ-hyperglycemic mouse assessed as decrease in blood glucose level at 150 mg/kg, po measured upto 5 hrs after administration; format: functional, organism-based
Mus musculus [8] = assay: Hypoglycemic effect in normoglycemic mouse assessed as decrease in blood glucose level at 5 to 50 mg/kg, po measured upto 5 hrs after administration; format: functional, organism-based; conditions: dose 5-50 mg/kg

IC50 [3] | Structure (SMILES) | IC50 [1] | inhibition [2] | inhibition (Sus scrofa) | Activity (Mus musculus [4]) | Activity (Mus musculus [5]) | Activity (Mus musculus [6]) | Activity (Mus musculus [7]) | Activity (Mus musculus [8])
– | C=C1[C@@H]2CC[C@H]3[C@]4(C)CCC[C@@](C)(C(=O)O[C@@H]5O[C@H](CO)[C@@H](O[C@@H]6OC[C@H](O)[C@H](O)[C@H]6O)[C@H](OC(C)=O)[C@H]5OC(C)=O)[C@H]4CC[C@]3(C2)[C@H]1O[C@@H]1O[C@H](CO)[C@@H](O)[C@H](O)[C@H]1O | 928 µM | inactive | inactive | – | – | – | – | –
– | CC(=O)O[C@@H]1CC[C@]2(C)[C@H]3CCC4=C([C@@H](C)CCC=C(C)C)CC[C@@]4(C)[C@]3(C)CC[C@H]2C1(C)C | 1180 µM | inactive | inactive | – | – | – | – | –
3.2 µM | C[C@H]1O[C@H](O[C@H]2[C@H](O)[C@@H](O)[C@@H](O[C@H]3[C@H](O)[C@@H](O)C(O)O[C@@H]3CO)O[C@@H]2CO)[C@H](O)[C@@H](O)[C@@H]1N[C@H]1C=C(CO)[C@@H](O)[C@H](O)[C@H]1O (stereo partly specified) [ACARBOSE] | – | – | – | – | – | – | – | –
– | CC(=O)O[C@@H]1[C@@H](OC(C)=O)[C@H](OC(=O)[C@]2(C)CCC[C@@]3(C)[C@@H]4[C@@H](O)[C@@H]5C(=O)C[C@]4(C=C5C)CC[C@@H]32)O[C@H](CO)[C@H]1O[C@@H]1OC[C@H](O)[C@H](O)[C@H]1O | 532 µM | inactive | inactive | – | – | – | – | –
– | CC(=O)O[C@@H]1[C@@H](OC(C)=O)[C@H](OC(=O)[C@]2(C)CCC[C@@]3(C)[C@@H]4[C@@H](O)C[C@@H]5C[C@@]4(CC[C@@H]32)C[C@@]5(O)CO)O[C@H](CO)[C@H]1O[C@@H]1OC[C@H](O)[C@H](O)[C@H]1O | 31.8 µM | inactive | inactive | – | – | – | – | –
– | C=C1C[C@@]23CC[C@H]4[C@@](C)(CCC[C@@]4(C)C(=O)O[C@@H]4O[C@H](CO)[C@@H](O[C@@H]5OC[C@H](O)[C@H](O)[C@H]5O)[C@H](OC(C)=O)[C@H]4OC(C)=O)[C@@H]2[C@@H](O)[C@@H]1C(=O)C3 | 527 µM | inactive | inactive | Active | Active | Active | Active | Active
